Results as given in paper PMC3351140 (MedChemComm, 2011).
Positions count from the first letter of the chain named. “And” between values parts separate entries of the source, which are not always exact repeats. Equal values may be shown once. One block for each compound: values may come before it.

Columns and labels:
[1] = target: T1, N370S glucocerebrosidase (GCase) (Homo sapiens, UniProt P04062, N409S); assay: N370S spleen; assay type: biochemical; conditions: for IC50: N370S tissue homogenate, 4-methylumbelliferone β-D glucopyranoside substrate (blue substrate); for fold loss of activity vs 8a: compared with 8a
T1 sequence (P04062 40-536 N409S): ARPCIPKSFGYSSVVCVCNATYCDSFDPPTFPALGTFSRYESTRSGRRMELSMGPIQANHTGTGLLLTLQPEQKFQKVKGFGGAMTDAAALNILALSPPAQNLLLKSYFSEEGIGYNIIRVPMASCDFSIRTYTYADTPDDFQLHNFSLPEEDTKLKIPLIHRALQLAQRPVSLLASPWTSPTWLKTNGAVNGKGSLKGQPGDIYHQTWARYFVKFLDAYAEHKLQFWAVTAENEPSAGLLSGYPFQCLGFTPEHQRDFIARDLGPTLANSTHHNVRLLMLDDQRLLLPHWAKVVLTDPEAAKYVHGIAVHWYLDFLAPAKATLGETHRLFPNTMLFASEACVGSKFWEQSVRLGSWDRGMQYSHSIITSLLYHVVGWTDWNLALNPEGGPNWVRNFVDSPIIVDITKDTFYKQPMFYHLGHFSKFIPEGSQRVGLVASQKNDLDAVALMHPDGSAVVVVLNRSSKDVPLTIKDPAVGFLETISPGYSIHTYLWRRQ

GCase [2] = target: T2, GCase (Homo sapiens, UniProt P04062); assay: Thermofunctional stabilization of GCase; assay type: biochemical; conditions: enzyme incubated at 51 °C for 60 minutes
T2 sequence (P04062 40-536): T1 sequence (P04062 40-536 N409S) with S370N

[3] = tested on: fibroblasts from patients with genotype N370S/N370S; assay: Translocation of N370S GCase to lysosomes, confocal microscopy; assay type: cell-based, human; conditions: 1 μM compound, five days, vs vehicle
[4] = Mouse liver microsome stability; assay type: in vitro ADME; conditions: 60 minutes, in the presence of NADPH
[5] = Pharmacokinetics after intraperitoneal administration to mice; assay type: in vivo, male C57BL/6 mice
GCase [6] = target: T2, GCase; assay: Isolated enzyme GCase assay; assay type: biochemical
GCase [7] = target: T2, GCase; assay: GCase inhibition with alternative substrates; assay type: biochemical
human SST4 receptor = human SST4 receptor (Homo sapiens, UniProt P31391); assay: human SST4 receptor binding affinity assay; conditions: compared with 27
Sequence of human SST4 receptor (P31391 whole entry): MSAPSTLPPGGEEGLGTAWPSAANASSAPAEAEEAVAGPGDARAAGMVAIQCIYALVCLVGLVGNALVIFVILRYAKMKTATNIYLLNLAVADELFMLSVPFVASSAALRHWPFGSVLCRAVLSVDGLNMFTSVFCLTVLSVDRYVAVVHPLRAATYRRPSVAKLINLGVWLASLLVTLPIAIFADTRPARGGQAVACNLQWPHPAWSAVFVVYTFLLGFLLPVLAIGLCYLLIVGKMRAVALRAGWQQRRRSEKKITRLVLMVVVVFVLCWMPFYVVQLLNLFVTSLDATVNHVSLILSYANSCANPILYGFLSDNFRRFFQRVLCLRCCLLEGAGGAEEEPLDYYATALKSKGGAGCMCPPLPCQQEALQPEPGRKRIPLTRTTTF

SMILES: CCCCNC(=S)NCCCN(Cc1ccc(Cl)c(Cl)c1)c1ccc(Br)cn1 [compound 25]
- IC50 [1]: inactive

SMILES: OC[C@H]1CNC[C@@H](O)[C@@H]1O [Isofagomine, reference compound]
- retention of GCase function after heating (GCase [2]): retain considerable function

SMILES: CN(CCCN(Cc1ccc(Cl)cc1)c1ccc(Br)cn1)C(=S)NCCCc1cnc[nH]1 [compound 26]
- fold loss of activity vs 8a [1]: 2 fold

SMILES: CN(CCCc1cnc[nH]1)C(=S)NCCCN(Cc1ccc(Cl)cc1)c1ccc(Br)cn1 [compound 27]
- fold loss of activity vs 8a [1]: 10 fold

SMILES: S=C(NCCCc1cnc[nH]1)NCCCN(Cc1ccc(Cl)cc1)c1ccc(Br)cc1 [compound 24]
- fold more potent than compound 27 (GCase) ([1]; compared with 27): about 10 fold
- fold less potent than 27 (SST4 binding) (human SST4 receptor): about 5 fold
- co-localization of N370S GCase with LAMP-1 (lysosomes) [3]: Increased co-localization

Now from value to compound, other results behind:

- IC50 [1]: inactive
SMILES: CC(=O)NCCCNC(=S)NCCCN(Cc1ccc(Cl)cc1)c1ccc(Br)cn1 [13b]

- retention of GCase function after heating (GCase [2]): retain considerable function
- co-localization of N370S GCase with LAMP-1 (lysosomes) [3]: Increased co-localization
- parent molecule remaining [4]: 58%
- Plasma concentration, Mean ([5]; 30 mg/kg IP, 0 hr): BQL
- Plasma concentration, individual ([5]; 30 mg/kg IP, 0 hr): BQL
- Plasma concentration, individual ([5]; 30 mg/kg IP, 0.083 hr, listed as ML156 (8i)): 1820 ng/mL and 1410 ng/mL
- Plasma concentration, individual ([5]; 30 mg/kg IP, 0.25 hr, listed as ML156 (8i)): 3010 ng/mL and 1640 ng/mL
- Plasma concentration, individual ([5]; 30 mg/kg IP, 0.5 hr, listed as ML156 (8i)): 2270 ng/mL and 3270 ng/mL
- Plasma concentration, individual ([5]; 30 mg/kg IP, 1 hr, listed as ML156 (8i)): 3770 ng/mL and 3150 ng/mL
- Plasma concentration, individual ([5]; 30 mg/kg IP, 2 hr, listed as ML156 (8i)): 3840 ng/mL
- Plasma concentration, individual ([5]; 30 mg/kg IP, 4 hr, listed as ML156 (8i)): 2030 ng/mL and 2570 ng/mL
- Plasma concentration, individual ([5]; 30 mg/kg IP, 8 hr, listed as ML156 (8i)): 1190 ng/mL and 357 ng/mL and 714 ng/mL
- Plasma concentration, individual ([5]; 30 mg/kg IP, 12 hr, listed as ML156 (8i)): 127 ng/mL and 80.7 ng/mL
- Plasma concentration, individual ([5]; 30 mg/kg IP, 24 hr, listed as ML156 (8i)): 12.6 ng/mL and 9.98 ng/mL
- inhibitory activity in isolated enzyme assays (GCase [6]): displayed inhibitory activity
- inhibition of hydrolysis of resorufin-β-glucopyranoside (red substrate) (GCase [7]): effectively inhibited
SMILES: S=C(NCCCc1c[nH]cn1)NCCCN(Cc1ccc(Cl)c(Cl)c1)c1ccc(Br)cn1 [8i]
- brain exposure ([5]; brain, additional pharmacokinetic studies): reasonable levels of the compound also reached the brain
